Test results: the supplement of paper PMC10307832

What follows are cell lines tested with COC1=CC=C(C=C1)COC2=C(C=C(C=C2)CC3=CN=C(N=C3N)N)OC [GW-2580] (assay: relative viability (nuclei count vs DMSO), 5 days (fraction); higher = more cells survive). Details: 0.8 µM.
Procedure, shortened: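 Nuclei counted with MetaXpress define viability as the ratio of treated to vehicle wells, given as a median across plates. The lung cancer cell lines were in 1536-well plates, pinned with five √10-spaced library-drug doses and imaged at 4× after 5 days and Hoechst staining. Plates passed with control CV below 25% and at least one doubling.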

Cell Line	relative viability
CAL-12T	1.03
NCI-H1651	1.08

Same assay, conditions: 2.53 µM

Cell Line	relative viability
COR-L 105	0.932
LOU-NH91	0.843
NCI-H2405	0.902
HOP-62	0.982
HCC-44	0.896
LU99A	0.949
BEN	0.776
HARA	0.951
HCC-78	0.675
NCI-H322M	0.971
LCLC-97TM1	0.848
NCI-H2009	0.967
A-427	0.86
NCI-H661	0.951
NCI-H1734	0.912
NCI-H460	1.01
NCI-H2347	0.88
SK-LU-1	0.826
NCI-H1395	0.877
201T	1.06
NCI-H1915	1.07
HCC-827	1.04
LXF-289	0.988
NCI-H23	0.983
NCI-H647	0.846
CAL-12T	0.933
NCI-H1651	0.952

Same assay, conditions: 8 µM

Cell Line	relative viability
COR-L 105	0.908
LOU-NH91	0.973
NCI-H2405	0.936
HOP-62	1.03
HCC-44	1.01
LU99A	0.916
BEN	0.905
HARA	0.902
HCC-78	0.933
NCI-H322M	0.946
LCLC-97TM1	1.03
NCI-H2009	0.888
A-427	0.881
NCI-H661	0.814
NCI-H1734	0.914
NCI-H460	0.952
NCI-H2347	1.07
SK-LU-1	1.14
NCI-H1395	0.935
201T	0.959
NCI-H1915	0.969
HCC-827	0.965
LXF-289	0.937
NCI-H23	0.99
NCI-H647	0.97
CAL-12T	1.01
NCI-H1651	0.977

Each cell line was assayed with COC1=CC=C(C=C1)COC2=C(C=C(C=C2)CC3=CN=C(N=C3N)N)OC [GW-2580] + CS(=O)(=O)N1CCN(Cc2cc3nc(-c4cccc5[nH]ncc45)nc(N4CCOCC4)c3s2)CC1 [Pictilisib] (partner 1 µM) (assay: relative viability (nuclei count vs DMSO), 5 days (fraction); higher = more cells survive). Details: first compound 0.08 µM.
Procedure, shortened: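 For relative viability, nuclei counts in treated wells were divided by those in vehicle wells. Lung cancer cell lines had been pin-tool dosed in 1536-well plates the day after seeding and cultured for 5 days, then fixed and stained in one step (final 0.05% Triton X-100, 1% formaldehyde, 1 ug/ml Hoechst) and imaged at 4×. Doses were one drug alone or a fixed anchor-drug dose plus five library-drug doses (not always all listed) in √10 steps, and values are duplicate-plate medians.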

Cell Line	relative viability
COR-L 105	0.36
LOU-NH91	0.527
NCI-H2405	0.432
HOP-62	0.909
HCC-44	0.688
LU99A	0.274
BEN	0.612
HARA	0.459
HCC-78	0.242
NCI-H322M	0.493
LCLC-97TM1	0.197
NCI-H2009	0.924
A-427	0.73
NCI-H661	0.343
NCI-H1734	0.491
NCI-H460	0.369
NCI-H2347	0.662
SK-LU-1	0.621
NCI-H1395	0.626
201T	0.601
NCI-H1915	0.986
HCC-827	1.01
LXF-289	0.82
NCI-H23	0.632
NCI-H647	0.37
CAL-12T	0.45
NCI-H1651	0.65

Same assay, conditions: first compound 0.8 µM

Cell Line	relative viability
COR-L 105	0.404
LOU-NH91	0.549
NCI-H2405	0.505
HOP-62	0.72
HCC-44	0.717
LU99A	0.322
BEN	0.602
HARA	0.513
HCC-78	0.245
NCI-H322M	0.534
NCI-H2009	0.982
A-427	0.661
NCI-H661	0.377
NCI-H1734	0.478
NCI-H460	0.452
NCI-H2347	0.992
SK-LU-1	0.63
NCI-H1395	0.584
201T	0.701
NCI-H1915	0.906
HCC-827	1.01
LXF-289	0.849
NCI-H23	0.46
NCI-H647	0.515
CAL-12T	0.739
NCI-H1651	0.707

Same assay, conditions: first compound 2.53 µM

Cell Line	relative viability
COR-L 105	0.353
LOU-NH91	0.502
NCI-H2405	0.319
HOP-62	0.63
HCC-44	0.582
LU99A	0.251
BEN	0.451
HARA	0.344
HCC-78	0.171
NCI-H322M	0.501
LCLC-97TM1	0.159
NCI-H2009	0.652
A-427	0.678
NCI-H661	0.321
NCI-H1734	0.431
NCI-H460	0.248
NCI-H2347	0.592
SK-LU-1	0.461
NCI-H1395	0.561
201T	0.67
NCI-H1915	0.954
HCC-827	0.949
LXF-289	0.653
NCI-H23	0.367
CAL-12T	0.341
